Ends that are not written are not given here. * marks the point of attachment. Palmitoyl = CCCCCCCCCCCCCCCC(=O)*
System: nasolabial and glabellar wrinkles
Experiment: Assessment of clinical efficacy: topical facial treatment for 28 days, wrinkle evaluation with Bio3D Structured-light Scanner
Format: in vivo, human
Settings: Day 28 vs Day 0, topical formulation containing peptide at 500 ppm, 10 volunteers per group
Protocol: Two groups of 10 volunteers underwent 28 days of topical treatment with the peptides SEQ NO ID 1 (Pro-Trp-Lys-Trp) or SEQ NO ID 2 (Pal-Pro-Thr-Lys-Trp) in the facial region. Nasolabial and glabellar lines were evaluated on Day 0 (before) and Day 28 (after 4 weeks of treatment) using Bio3D Structured-light Scanner. For wrinkle evaluation, images of the different areas were taken and processed through specific software. Three parameters (total area, length and depth of wrinkles) were obtained for each of the areas in each of the volunteers.

Row | Substance | Decreased wrinkle intensity (D 28/D 0): Wrinkle area [%] | Decreased wrinkle intensity (D 28/D 0): Wrinkle depth [%] | Decreased wrinkle intensity (D 28/D 0): Wrinkle length [%]
1 | Pal-Pro-Thr-Lys-Trp (Palmitoyl-PTKW) [SEQ NO ID 2, N-palmitoylated peptide] | −7.81 | −6.59 | −11.76
2 | Pro-Trp-Lys-Trp (PWKW) [SEQ NO ID 1] | −10.92 | −9.23 | −14.97
